Data taken from paper PMC9270327 (Communications Biology, 2022).
Read-outs that look alike come from different tables or passages of the source.

Columns and labels:
TMPRSS2 [1] = biological target: T1, TMPRSS2 (Homo sapiens, UniProt O15393); test: Plasma stability: residual TMPRSS2 inhibition after incubation in human plasma
Method: (§1) The activity of the compounds against the recombinant human enzymes was determined in enzyme inhibition assays. […] The measurements were performed on a Tecan infinite® M1000 and the fluorescence intensity was measured by exciting the AMC fluorophore at 380 nm wavelength and recording emission at 460 nm wavelength. […] Fluorescence intensities and absorption were measured every 2 min for 2 h or as endpoint after 2 h. […] To determine the IC50 values, the concentration-response data were plotted with the program GraphPad prism version 8.4.2 (San Diego, California) and a nonlinear regression fit with the equation [Inhibitor] vs. normalized response was applied. The inhibitory constant Ki was calculated from the IC50 values using the Cheng–Prusoff equation (Ki = IC50/[S]/KM) for competitive reversible inhibitors[66].
(§2) The stability of the inhibitors was measured according to a modified procedure from ref. [67]. […] At indicated timepoints, 100 µL samples were taken and mixed with 200 µL of ethanol to precipitate proteins. […] The supernatant was aspirated and analyzed using analytical HPLC. The residual inhibitory constants Ki after incubation was assessed by mixing serial dilutions of the inhibitor with recombinant TMPRSS2 as described above.
Shown are the means ± SD of n=1 experiment performed in triplicates.

[2] = test system: SARS-CoV-2 Alpha (B.1.1.7), Caco-2 cells; format: cell-based; details: for SARS-CoV-2 infection, Mean (0 nM = 100): Fig. 6c, VOC Alpha
[3] = test system: lentiviral pseudoparticles carrying SARS-CoV-2 Wuhan-Hu-1 spike, Caco-2 cells; format: cell-based
TMPRSS2 [4] = biological target: T1, TMPRSS2
Method: Negative ctrl: no inhibitor, positive ctrl: inhibitor in assay buffer. d Inhibitory constants Ki as determined from (a–c). Shown are the means ± SD of n = 1 experiment performed in triplicates. No inh. no inhibition.
as §1, §2

[5] = inhibitor 0.0167 nM, positive ctrl
[6] = inhibitor 0.167 nM, positive ctrl

T1 sequence (O15393 whole entry): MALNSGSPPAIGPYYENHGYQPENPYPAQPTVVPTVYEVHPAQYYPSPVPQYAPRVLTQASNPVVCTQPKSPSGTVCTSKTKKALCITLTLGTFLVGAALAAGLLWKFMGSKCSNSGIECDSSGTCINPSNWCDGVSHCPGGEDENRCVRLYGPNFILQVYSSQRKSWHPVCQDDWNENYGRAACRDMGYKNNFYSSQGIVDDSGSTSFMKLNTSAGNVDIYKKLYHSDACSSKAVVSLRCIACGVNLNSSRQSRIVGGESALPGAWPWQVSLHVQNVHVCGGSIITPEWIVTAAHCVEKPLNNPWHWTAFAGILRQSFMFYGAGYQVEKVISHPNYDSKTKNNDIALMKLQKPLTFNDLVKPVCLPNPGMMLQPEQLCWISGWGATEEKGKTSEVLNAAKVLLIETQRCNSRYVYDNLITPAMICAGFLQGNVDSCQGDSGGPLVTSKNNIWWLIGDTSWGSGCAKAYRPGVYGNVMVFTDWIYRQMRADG

With ace-Arg-Pro-Arg-kbt [Compound 2] the “TMPRSS2 activity, Mean (0 nM = 100)” value (TMPRSS2 [1]; inhibitor 0.0167 nM, 0 min in plasma) was 108.191, the “TMPRSS2 activity, Mean (0 nM = 100)” value (TMPRSS2 [1]; inhibitor 0.0167 nM, 30 min in plasma) was 105.387 and the “TMPRSS2 activity, Mean (0 nM = 100)” value (TMPRSS2 [1]; inhibitor 0.0167 nM, 60 min in plasma) was 97.3483. For the same substance, the “TMPRSS2 activity, Mean (0 nM = 100)” value (TMPRSS2 [1]; inhibitor 0.0167 nM, 120 min in plasma) was 100.611, the “TMPRSS2 activity, Mean (0 nM = 100)” value (TMPRSS2 [1]; inhibitor 0.0167 nM, 24 h in plasma) was 95.898 and the “TMPRSS2 activity, Mean (0 nM = 100)” value (TMPRSS2 [1]; inhibitor 0.0167 nM, 10 d in plasma) was 98.4437. For the same substance, the “TMPRSS2 activity, Mean (0 nM = 100)” value (TMPRSS2 [1]; [5]) was 103.005, the “TMPRSS2 activity, Mean (0 nM = 100)” value (TMPRSS2 [1]; inhibitor 0.167 nM, 0 min in plasma) was 105.131 and the “TMPRSS2 activity, Mean (0 nM = 100)” value (TMPRSS2 [1]; inhibitor 0.167 nM, 30 min in plasma) was 104.481. The “TMPRSS2 activity, Mean (0 nM = 100)” value (TMPRSS2 [1]; inhibitor 0.167 nM, 60 min in plasma) was 96.8072, the “TMPRSS2 activity, Mean (0 nM = 100)” value (TMPRSS2 [1]; inhibitor 0.167 nM, 120 min in plasma) was 98.0518 and the “TMPRSS2 activity, Mean (0 nM = 100)” value (TMPRSS2 [1]; inhibitor 0.167 nM, 24 h in plasma) was 93.482. The “TMPRSS2 activity, Mean (0 nM = 100)” value (TMPRSS2 [1]; inhibitor 0.167 nM, 10 d in plasma) was 101.036, the “TMPRSS2 activity, Mean (0 nM = 100)” value (TMPRSS2 [1]; [6]) was 100.219 and the “TMPRSS2 activity, Mean (0 nM = 100)” value (TMPRSS2 [1]; inhibitor 1.665 nM, 0 min in plasma) was 102.769. The “TMPRSS2 activity, Mean (0 nM = 100)” value (TMPRSS2 [1]; inhibitor 1.665 nM, 30 min in plasma) was 100.449, the “TMPRSS2 activity, Mean (0 nM = 100)” value (TMPRSS2 [1]; inhibitor 1.665 nM, 60 min in plasma) was 96.1849 and the “TMPRSS2 activity, Mean (0 nM = 100)” value (TMPRSS2 [1]; inhibitor 1.665 nM, 120 min in plasma) was 100.213. The “TMPRSS2 activity, Mean (0 nM = 100)” value (TMPRSS2 [1]; inhibitor 1.665 nM, 24 h in plasma) was 98.9115, the “TMPRSS2 activity, Mean (0 nM = 100)” value (TMPRSS2 [1]; inhibitor 1.665 nM, 10 d in plasma) was 97.0442 and the “TMPRSS2 activity, Mean (0 nM = 100)” value (TMPRSS2 [1]; inhibitor 1.665 nM, positive ctrl) was 88.8492. For the same substance, the “TMPRSS2 activity, Mean (0 nM = 100)” value (TMPRSS2 [1]; inhibitor 16.65 nM, 0 min in plasma) was 86.0968, the “TMPRSS2 activity, Mean (0 nM = 100)” value (TMPRSS2 [1]; inhibitor 16.65 nM, 30 min in plasma) was 100.379 and the “TMPRSS2 activity, Mean (0 nM = 100)” value (TMPRSS2 [1]; inhibitor 16.65 nM, 60 min in plasma) was 78.8625. The “TMPRSS2 activity, Mean (0 nM = 100)” value (TMPRSS2 [1]; inhibitor 16.65 nM, 120 min in plasma) was 82.8569, the “TMPRSS2 activity, Mean (0 nM = 100)” value (TMPRSS2 [1]; inhibitor 16.65 nM, 24 h in plasma) was 83.5789 and the “TMPRSS2 activity, Mean (0 nM = 100)” value (TMPRSS2 [1]; inhibitor 16.65 nM, 10 d in plasma) was 88.0057. For the same substance, the “TMPRSS2 activity, Mean (0 nM = 100)” value (TMPRSS2 [1]; inhibitor 16.65 nM, positive ctrl) was 53.0338, the “TMPRSS2 activity, Mean (0 nM = 100)” value (TMPRSS2 [1]; inhibitor 166.5 nM, 0 min in plasma) was 23.84 and the “TMPRSS2 activity, Mean (0 nM = 100)” value (TMPRSS2 [1]; inhibitor 166.5 nM, 30 min in plasma) was 25.2709. The “TMPRSS2 activity, Mean (0 nM = 100)” value (TMPRSS2 [1]; inhibitor 166.5 nM, 60 min in plasma) was 26.798, the “TMPRSS2 activity, Mean (0 nM = 100)” value (TMPRSS2 [1]; inhibitor 166.5 nM, 120 min in plasma) was 22.618 and the “TMPRSS2 activity, Mean (0 nM = 100)” value (TMPRSS2 [1]; inhibitor 166.5 nM, 24 h in plasma) was 21.6315. The “TMPRSS2 activity, Mean (0 nM = 100)” value (TMPRSS2 [1]; inhibitor 166.5 nM, 10 d in plasma) was 39.6688, the “TMPRSS2 activity, Mean (0 nM = 100)” value (TMPRSS2 [1]; inhibitor 166.5 nM, positive ctrl) was 13.9877 and the “TMPRSS2 activity, Mean (0 nM = 100)” value (TMPRSS2 [1]; inhibitor 1665 nM, 0 min in plasma) was 0.5738. For the same substance, the “TMPRSS2 activity, Mean (0 nM = 100)” value (TMPRSS2 [1]; inhibitor 1665 nM, 30 min in plasma) was 7.5387, the “TMPRSS2 activity, Mean (0 nM = 100)” value (TMPRSS2 [1]; inhibitor 1665 nM, 60 min in plasma) was 0.2056 and the “TMPRSS2 activity, Mean (0 nM = 100)” value (TMPRSS2 [1]; inhibitor 1665 nM, 120 min in plasma) was 7.6223. The “TMPRSS2 activity, Mean (0 nM = 100)” value (TMPRSS2 [1]; inhibitor 1665 nM, 24 h in plasma) was 2.774, the “TMPRSS2 activity, Mean (0 nM = 100)” value (TMPRSS2 [1]; inhibitor 1665 nM, 10 d in plasma) was 10.1282 and the “TMPRSS2 activity, Mean (0 nM = 100)” value (TMPRSS2 [1]; inhibitor 1665 nM, positive ctrl) was 12.6313. For the same substance, the “SARS-CoV-2 infection, Mean (0 nM = 100)” value ([2]; compound 32 nM) was 106.285, the “SARS-CoV-2 infection, Mean (0 nM = 100)” value ([2]; compound 160 nM) was 107.747 and the “SARS-CoV-2 infection, Mean (0 nM = 100)” value ([2]; compound 800 nM) was 109.671. The “SARS-CoV-2 infection, Mean (0 nM = 100)” value ([2]; compound 4000 nM) was 112.829, the “SARS-CoV-2 infection, Mean (0 nM = 100)” value ([2]; compound 20000 nM) was 1.3092 and the “SARS-CoV-2 infection, Mean (0 nM = 100)” value ([2]; compound 100000 nM) was -2.734. For the same substance, the IC50 ([2]; read-out: IC50 SARS-CoV-2 Alpha) was ~20 µM, the “SARS-CoV-2 spike driven entry, Mean (0 nM = 100)” value (from here on “SARS-CoV-2 spike driven entry”) [3] was 93.4665 and the IC50 ([3]; Caco-2 cells, luciferase 2 days post transduction, read-out: IC50 pseudotyped lentivirus Wuhan-Hu-1) was 1.62 µM. The “SARS-CoV-2 spike driven entry” value ([3]; Fig. 5a, compound 160 nM, […]) was 93.5815, the “SARS-CoV-2 spike driven entry” value ([3]; Fig. 5a, compound 800 nM, […]) was 73.183 and the “SARS-CoV-2 spike driven entry” value ([3]; Fig. 5a, compound 4000 nM, […]) was 22.027. For the same substance, the “SARS-CoV-2 spike driven entry” value ([3]; Fig. 5a, compound 20000 nM, […]) was 3.879, the “SARS-CoV-2 spike driven entry” value ([3]; Fig. 5a, compound 100000 nM, […]) was 2.5725 and the “increase in Ki values against TMPRSS2” value (TMPRSS2 [4]; incubation in human serum during the course of 10 days) was 1.4–1.8 fold. For the same substance, the “TMPRSS2 activity, Mean (0 nM = 100)” value (TMPRSS2 [4]; inhibitor 0.0167 nM, 0 min in serum) was 106.1220, the “TMPRSS2 activity, Mean (0 nM = 100)” value (TMPRSS2 [4]; inhibitor 0.0167 nM, 30 min in serum) was 99.5878 and the “TMPRSS2 activity, Mean (0 nM = 100)” value (TMPRSS2 [4]; inhibitor 0.0167 nM, 60 min in serum) was 97.9753. For the same substance, the “TMPRSS2 activity, Mean (0 nM = 100)” value (TMPRSS2 [4]; inhibitor 0.0167 nM, 120 min in serum) was 103.1067, the “TMPRSS2 activity, Mean (0 nM = 100)” value (TMPRSS2 [4]; inhibitor 0.0167 nM, 24 h in serum) was 102.6336 and the “TMPRSS2 activity, Mean (0 nM = 100)” value (TMPRSS2 [4]; inhibitor 0.0167 nM, 10 d in serum) was 99.7199. For the same substance, the “TMPRSS2 activity, Mean (0 nM = 100)” value (TMPRSS2 [4]; [5]) was 99.3394, the “TMPRSS2 activity, Mean (0 nM = 100)” value (TMPRSS2 [4]; inhibitor 0.167 nM, 0 min in serum) was 105.3800 and the “TMPRSS2 activity, Mean (0 nM = 100)” value (TMPRSS2 [4]; inhibitor 0.167 nM, 30 min in serum) was 98.0548. The “TMPRSS2 activity, Mean (0 nM = 100)” value (TMPRSS2 [4]; inhibitor 0.167 nM, 60 min in serum) was 98.4409, the “TMPRSS2 activity, Mean (0 nM = 100)” value (TMPRSS2 [4]; inhibitor 0.167 nM, 120 min in serum) was 101.9976 and the “TMPRSS2 activity, Mean (0 nM = 100)” value (TMPRSS2 [4]; inhibitor 0.167 nM, 24 h in serum) was 99.8791. For the same substance, the “TMPRSS2 activity, Mean (0 nM = 100)” value (TMPRSS2 [4]; inhibitor 0.167 nM, 10 d in serum) was 99.7654, the “TMPRSS2 activity, Mean (0 nM = 100)” value (TMPRSS2 [4]; [6]) was 97.2281 and the “TMPRSS2 activity, Mean (0 nM = 100)” value (TMPRSS2 [4]; inhibitor 1.665 nM, 0 min in serum) was 108.2341. For the same substance, the “TMPRSS2 activity, Mean (0 nM = 100)” value (TMPRSS2 [4]; inhibitor 1.665 nM, 30 min in serum) was 98.1707, the “TMPRSS2 activity, Mean (0 nM = 100)” value (TMPRSS2 [4]; inhibitor 1.665 nM, 60 min in serum) was 94.8463 and the “TMPRSS2 activity, Mean (0 nM = 100)” value (TMPRSS2 [4]; inhibitor 1.665 nM, 120 min in serum) was 98.7901. The “TMPRSS2 activity, Mean (0 nM = 100)” value (TMPRSS2 [4]; inhibitor 1.665 nM, 24 h in serum) was 99.7583 and the “TMPRSS2 activity, Mean (0 nM = 100)” value (TMPRSS2 [4]; inhibitor 1.665 nM, 10 d in serum) was 103.5823.
